Experimental data taken from patent publication US10537103B2, “Antibacterial composition containing an isomer mixture of monosaccharide alkyl monoacetals or monoethers” (TEREOS STARCH & SWEETENERS BELGIUM, priority 2014, dated 2020).
Converted amounts (≈) assume the structure as drawn. Where two headings read alike, the source gives them in different places.

What was measured:
[1] = Water solubility of test solutions; assay type: physicochemical; details: solutions diluted in water, 2.5% m ethanol; precipitates formed
Procedure: Tests have been conducted on Gram-positive bacteria with methyl glucopyranoside derivatives. […] After sterilization the solutions are diluted in water. […] Because precipitates formed in the solutions, the effect of these methyl glucopyranoside C10 and C12 acetals was not able to be evaluated. The results obtained for antimicrobial tests on the 3 bacterial strains L. monocytogenes (CIP 103575), E. faecalis (ATCC® 29212) and S. aureus (ATCC® […]) are summarized in Table 1.

[2] = tested on: E. faecium strains (CIP 103510, Van A, 1401); test: MIC on a wider panel of strains (Example 10), microdilution; assay type: cell-based; details: Enterococcus faecium, CIP103510
Procedure: (§1) The cultures studied, freshly isolated (after incubation on a blood agar at 37° C. for 18 h), are taken up in sterile water (10 mL) until obtaining a 0.5 McFarland (Mc) suspension i.e. 1 to 1 to 2×10^8 CFU (bacteria)/cm^3. The bacterial suspension was then diluted to obtain a final concentration of 1×10^6 CFU/cm^3.
(§2) Each well contains an identical quantity of Mueller-Hinton medium (a rich medium for bacterial culture) and bacteria with final [concentration of] 0.5×10^6 CFU/cm^3.
(§3) The test compounds of interest are solubilized in ethanol or DMSO at 25 mg/mL before being diluted to different concentrations two by two. On the multiwell plate, a first series has been planned comprising the culture medium without the test compound of interest. It corresponds to the growth control (control well). These controls serve as reference for comparing bacterial growth with that of the subsequent wells comprising different concentrations of the test compound of interest. The second series of wells comprises the mother solution for the test compound of interest for a concentration in the wells of 256 mg/L (7 mM). Each series of wells was diluted two by two until the last series for a final concentration of 0.25 mg/L (0.0007 mM). Each concentration is duplicated in the same plate. The plate is incubated for 18 h at 37° C. […] If there is antibacterial activity, the bacterial growth is inhibited, which means that no turbidity or bacterial residue is present.
(§4) The minimum inhibitory concentrations (MIC) are tested on Gram-positive bacterial strains according to the recommendations of the “Clinical Laboratory Standards Institute” (Clinical-Laboratory-Standards-Institute, 6th ed. Approved standard M100-S17. CLSI, Wayne, Pa., 2007). The clinical strains have been isolated in the Hospice de Lyon.
Enterococci: E. faecium (CIP 103510), clinical strains of Enterococci E. faecium: Van A 0151850763 (hereinafter Van A); strain 015 205731401 (hereinafter 1401),
as §1, with “At 10^8” for “1 to 1 to 2×10^8”, “10^6” for “1×10^6”

[3] = tested on: Staphylococcus S. aureus strains (ATCC, methicillin-resistant, daptomycin-resistant); test: as above; assay type: cell-based
Procedure: as §1, §2, §3, §4
Staphylococci S. aureus: ATCC® 29213™, ATCC 25923,
as §1, with “At 10^8” for “1 to 1 to 2×10^8”, “10^6” for “1×10^6”

[4] = E. faecium CIP 103510, read-out: MIC Enterococcus CIP 103510
[5] = E. faecium clinical strain Van A 0151850763, read-out: MIC Enterococcus Van A
[6] = methicillin-resistant, HT 2002-0417, read-out: MIC S. aureus HT 2002-0417
[7] = methicillin-resistant, HT 2006-1004, read-out: MIC S. aureus HT 2006-1004
[8] = methicillin-resistant, LY 199-0053, read-out: MIC S. aureus LY 199-0053
[9] = methicillin-resistant, Lac-Deleo USA 300, read-out: MIC S. aureus USA 300
[10] = methicillin-resistant, MU 3, read-out: MIC S. aureus MU 3
[11] = strain ATCC 25923, read-out: MIC S. aureus ATCC 25923
[12] = strain ATCC 29213, read-out: MIC S. aureus ATCC 29213

Structure (SMILES) | melting point | water solubility [1] | MIC [2, 4] | MIC [2, 5] | MIC ([3]; Staphylococcus, all strains of Table 6, read-out: MIC, staphylococcus strains tested) | MIC [3, 6] | MIC ([3]; methicillin-resistant, HT 2004-0012, read-out: MIC S. aureus HT 2004-0012) | MIC [3, 7] | MIC [3, 8] | MIC [3, 9] | MIC [3, 10] | MIC [3, 11] | MIC [3, 12] | MIC ([2]; E. faecium clinical strain 015 205731401, read-out: MIC Enterococcus 1401) | MIC ([3]; daptomycin-resistant, ST 2014 1288, read-out: MIC S. aureus ST 2014 1288) | MIC ([3]; daptomycin-resistant, ST 2015-0188, read-out: MIC S. aureus ST 2015 0188) | MIC ([3]; daptomycin-resistant, ST 2015-0989, read-out: MIC S. aureus ST 2015 0989)
CCCCCCCCCCCC1OCC2O[C@H](OC)C(O)C(O)[C@@H]2O1 (stereo partly drawn) [Compound 1e, Methyl 4,6-O-Dodecylidene α-D-glucopyranoside] | 69 °C | low water solubility | 256 µg/mL (≈ 710 µM) | 256 µg/mL (≈ 710 µM) | > 256 µg/mL | 256 µg/mL (≈ 710 µM) | 256 µg/mL (≈ 710 µM) | 256 µg/mL (≈ 710 µM) | 256 µg/mL (≈ 710 µM) | 256 µg/mL (≈ 710 µM) | 256 µg/mL (≈ 710 µM) | 256 µg/mL (≈ 710 µM) | 256 µg/mL (≈ 710 µM) |  |  |  | 
CCCCCCCCCCCC1OCC2O[C@@H](OC)C(O)C(O)[C@@H]2O1 (stereo partly drawn) [Compound 1f, Methyl 4,6-O-Dodecylidene β-D-glucopyranoside] | 84 °C |  | 32 µg/mL (≈ 88.8 µM) | 32 µg/mL (≈ 88.8 µM) |  | 128 µg/mL (≈ 355 µM) |  | 64 µg/mL (≈ 178 µM) | 64 µg/mL (≈ 178 µM) | 64 µg/mL (≈ 178 µM) | 64 µg/mL (≈ 178 µM) | 64 µg/mL (≈ 178 µM) | 64 µg/mL (≈ 178 µM) | 16 µg/mL (≈ 44.4 µM) | 64 µg/mL (≈ 178 µM) | 64 µg/mL (≈ 178 µM) | 64 µg/mL (≈ 178 µM)
